Laboratory results published in patent publication US20260216229A1, “PROGRAMMABLE DNA PROTEOLYSIS TARGET CHIMERAS AND METHODS OF THEIR USE” (ARIZONA BOARD OF REGENTS ON BEHALF OF ARIZONA STATE …, priority 2023, published 2026).

Molecular target: T1, CDK6 (Homo sapiens, UniProt Q00534)
T1 construct: Western blot analysis of CDK6 degradation in U251 cells treated with distance-based DNA-PROTACs; endogenous in cells; host or cells: U-251 MG (U251) glioblastoma cells
Assay: Western blot of CDK6 degradation in U251 cells transfected with DNA-PROTACs
Assay type: cell-based
Conditions: for CDK6 protein degradation (Western blot): 14-hour treatment
Experimental: U-251 MG Glioblastoma Cell Line was grown in Dulbecco's Modified Eagles Medium (DMEM) containing 10% heat inactivated fetal bovine serum (FBS), streptomycin (5 μg/mL) and 5 U/mL penicillin 95 U/mL). All cell lines were maintained, and cell culture experiments were carried out in humidified incubators at 37° C. and 5% CO2 supplementation.
One day prior to DNA-PROTACs transfection, cells were propagated into 6 cm cell culture dishes containing appropriate complete growth medium. Prior to transfection, complete medium was replaced with transfection medium (5% FBS, no Penstrep). DNA-PROTACs transfection was performed using lipofectamine 3000 reagent according to the protocols provided by the manufacture. All transfections were carried out in 6-cm dishes with 3 mL of media and concentrations of DNA-PROTACs were calculated according to this volume (3 mL). Briefly, for 50 nM concentration, 5 μL from a 30 µM DNA-PROTACs stock and 12 μL p3000 reagent was added to a tube containing 125 μL of OPTIM-MEM and 8 μL of Lipofectamine 3000 reagent was added to a separate tube containing 125 μL of OPTIM-MEM. Two tubes were incubated for 5 minutes at room temperature and DNA-PROTACs containing OPTI-MEM was then slowly added to the second tube with lipo3000. The solution in the tube was mixed well by pipetting up and down several times. After incubating for 15-20 minutes at room temperature, 250 μL of DNA-PROTACs-lipofectamine complex was added drop wise onto cells containing the transfection medium. Transfection medium was mixed well before transferring the plate into the incubator. After appropriate time, cells were either harvested or replaced with fresh medium and incubated for desired time point prior to harvesting. For proteasome inhibition assay, 5 μM of MG-132 was incubated with cells for 2 h prior to transfection of DNA-PROTACs. Then, cells were incubated for another 12 h before lysing cells. Cell lysates were prepared by incubating cells in RIPA lysis buffer (25 mM Tris pH 7.6, 150 mM NaCl, 1% NP40, 1% deoxycholate, 0.1% SDS, 1× protease inhibitor cocktail from Roche and 1 mM of PMSF) on ice for 30 minutes and cell lysate was clarified by centrifugation at high speed (15 000 rpm) for 15 minutes. Clear supernatant was collected for further experiments.
Protein concentration in all the cell lysates were measured by BCA protein assay kit and equal amounts from each lysate were mixed with 4×loading dye and boiled for 5 minutes followed by 2 minutes centrifugation prior to loading into SDS-PAGE gel. Next proteins on the SDS-PAGE gel were transferred to a Nitrocellulose membrane by western blotting and the membrane was blocked with 5% milk in TBST (0.05% Tween 20) for 1 h. Primary antibodies (all Abcam antibodies were diluted 1:5000) were prepared in TBST with 2.5% milk and membranes were incubated overnight at 4° C. On the following day, membrane was washes for 15 minutes (Incubate for three times, 5 minutes each) and appropriate secondary antibodies (1:5000) were prepared in TBST and incubated with the membrane for 1 h at room temperature (RT). Membrane was washed for 15 minutes with TBST (incubate for three times, […]) prior to imaging.
The degradation efficiency of various DNA-PROTACs was evaluated through their transfection into U251 cells, conducted simultaneously to ensure uniform experimental conditions. A double-stranded DNA sequence without any ligand was utilized as a negative control, providing a baseline for comparison. Following a 14-hour treatment period, a duration selected based on preliminary time-course studies, the cells were harvested using trypsin digestion. The lysates obtained were then subjected to SDS-PAGE, followed by Western blot analysis to assess protein degradation. […] This finding highlights the efficacy of DNA-PROTAC V02 in targeting and reducing CDK6 protein levels. In comparison, DNA-PROTAC Versions 03 and 04 also facilitated protein degradation, albeit with varying degrees of efficiency. […]

T1 sequence (Q00534 whole entry): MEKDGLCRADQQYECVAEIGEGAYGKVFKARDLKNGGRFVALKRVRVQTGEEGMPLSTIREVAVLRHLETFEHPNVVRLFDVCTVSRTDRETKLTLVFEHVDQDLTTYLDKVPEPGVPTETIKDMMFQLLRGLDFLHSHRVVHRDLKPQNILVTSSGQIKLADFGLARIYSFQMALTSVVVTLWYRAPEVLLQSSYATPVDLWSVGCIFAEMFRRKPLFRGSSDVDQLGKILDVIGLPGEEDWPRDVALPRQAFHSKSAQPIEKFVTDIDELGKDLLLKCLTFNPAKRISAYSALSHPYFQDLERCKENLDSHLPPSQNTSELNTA

Compound: CC(=O)c1c(C)c2cnc(Nc3ccc(N4CCN(CCOCCOCCOCCNC(=O)COc5cccc6c5C(=O)N(C5CCC(=O)NC5=O)C6=O)CC4)cn3)nc2n(C2CCCC2)c1=O (centres unmarked) [BSJ-03-123, reference compound]
- CDK6 protein levels (Western blot) (160 nM treatment): discernible reduction in protein levels

Compound: A-minor-00: angular-series DNA duplex of E3-i strand SEQ ID NO 3 and POI-i strand SEQ ID NO 5 (chain 1 ACTCCATCTANTTCTACGCCA; chain 2 TGGCGTAGAATAGANTGGAGT; pomalidomide and POI ligand conjugated; modified_base 1 OTHER; Nucleotide with phosphorothioate linkage; modified_base 2 OTHER; modified_base 3 OTHER; misc_difference 11 E3 ligase attached to 3-Dimethoxytrityloxy-2-(3-(fluorenylmethoxycarbonylamino)propanamido)propyl-1-O-(2-cyanoethyl)-(N,N-diisopropyl)-phosphoramidite modified adenosine, cytidine, thymi; m)
- CDK6 protein degradation (Western blot) (concentration not given): marginal CDK6 degradation

Compound: A-minor-01: angular-series DNA duplex of E3-i strand SEQ ID NO 3 and POI-i strand SEQ ID NO 21 (chain 1 ACTCCATCTANTTCTACGCCA; chain 2 TGGCGTAGAATAGNATGGAGT; E3 and POI ligands conjugated; modified_base 1 OTHER; Nucleotide with phosphorothioate linkage; modified_base 2 OTHER; modified_base 3 OTHER; misc_difference 11 E3 ligase attached to 3-Dimethoxytrityloxy-2-(3-(fluorenylmethoxycarbonylamino)propanamido)propyl-1-O-(2-cyanoethyl)-(N,N-diisopropyl)-phosphoramidite modified adenosine, cytidine, thymi; m)
- CDK6 protein degradation (Western blot) (100 nM): substantial degradation

Compound: A-minor-02: angular-series DNA duplex of E3-i strand SEQ ID NO 3 and POI-i strand SEQ ID NO 22 (chain 1 ACTCCATCTANTTCTACGCCA; chain 2 TGGCGTAGAATANGATGGAGT; E3 and POI ligands conjugated; modified_base 1 OTHER; Nucleotide with phosphorothioate linkage; modified_base 2 OTHER; modified_base 3 OTHER; misc_difference 11 E3 ligase attached to 3-Dimethoxytrityloxy-2-(3-(fluorenylmethoxycarbonylamino)propanamido)propyl-1-O-(2-cyanoethyl)-(N,N-diisopropyl)-phosphoramidite modified adenosine, cytidine, thymi; m)
- CDK6 protein degradation (Western blot) (100 nM): substantial degradation

Compound: A-minor-03: angular-series DNA duplex of E3-i strand SEQ ID NO 3 and POI-i strand SEQ ID NO 23 (chain 1 ACTCCATCTANTTCTACGCCA; chain 2 TGGCGTAGAATNAGATGGAGT; E3 and POI ligands conjugated; modified_base 1 OTHER; Nucleotide with phosphorothioate linkage; modified_base 2 OTHER; modified_base 3 OTHER; misc_difference 11 E3 ligase attached to 3-Dimethoxytrityloxy-2-(3-(fluorenylmethoxycarbonylamino)propanamido)propyl-1-O-(2-cyanoethyl)-(N,N-diisopropyl)-phosphoramidite modified adenosine, cytidine, thymi; m)
- concentration at which significant CDK6 degradation begins (14 hours, angular series): 20 nM

Compound: Version 03: DNA duplex of E3-i strand SEQ ID NO 3 and POI-i strand SEQ ID NO 5 (chain 1 ACTCCATCTANTTCTACGCCA; chain 2 TGGCGTAGAATAGANTGGAGT; E3 and POI ligands conjugated; modified_base 1 OTHER; Nucleotide with phosphorothioate linkage; modified_base 2 OTHER; modified_base 3 OTHER; misc_difference 11 E3 ligase attached to 3-Dimethoxytrityloxy-2-(3-(fluorenylmethoxycarbonylamino)propanamido)propyl-1-O-(2-cyanoethyl)-(N,N-diisopropyl)-phosphoramidite modified adenosine, cytidine, thymi; m)
- CDK6 protein degradation (Western blot) (100 nM): substantially reduce CDK6 protein levels

Compound: Version 04: DNA duplex of E3-i strand SEQ ID NO 3 and POI-i strand SEQ ID NO 6 (chain 1 ACTCCATCTANTTCTACGCCA; chain 2 TGGCNGTAGAATAGATGGAGT; E3 and POI ligands conjugated; modified_base 1 OTHER; Nucleotide with phosphorothioate linkage; modified_base 2 OTHER; modified_base 3 OTHER; misc_difference 11 E3 ligase attached to 3-Dimethoxytrityloxy-2-(3-(fluorenylmethoxycarbonylamino)propanamido)propyl-1-O-(2-cyanoethyl)-(N,N-diisopropyl)-phosphoramidite modified adenosine, cytidine, thymi; m)
- CDK6 protein degradation (Western blot) (50 nM): more pronounced reduction in protein levels

Compound: Version 05: DNA duplex of E3-i strand SEQ ID NO 18 and POI-i strand SEQ ID NO 20; largest ligand distance of approximately 60.2 Å (chain 1 ANCTCCATCTATTCTACGCCA; chain 2 TNGGCGTAGAATAGATGGAGT; E3 and POI ligands conjugated; modified_base 1 OTHER; Nucleotide with phosphorothioate linkage; misc_difference 2 E3 ligase attached to 3-Dimethoxytrityloxy-2-(3-(fluorenylmethoxycarbonylamino)propanamido)propyl-1-O-(2-cyanoethyl)-(N,N-diisopropyl)-phosphoramidite modified adenosine, cytidine, thymidine, guanosine, unknown or other nucleotide with phosphorothioate linkage; modified_base 3 OTHER; Nucleotide with phosphorothioate; misc_difference 2 Protein of interest attached to 3-Dimethoxytrityloxy-2-(3-(fluorenylmethoxycarbonylamino)propanamido)propyl-1-O-()
- CDK6 protein degradation (Western blot) (50 nM and 100 nM, vs ligand-free dsDNA control): did not exhibit any discernible protein degradation
